Measurements as given in the supplement of paper PMC10307832.

These cell lines were tested with CC1=C(N=C(N=C1N)[C@H](CC(=O)N)NC[C@@H](C(=O)N)N)C(=O)N[C@@H]([C@H](C2=CN=CN2)OC3C(C(C(C(O3)CO)O)O)OC4C(C(C(C(O4)CO)O)OC(=O)N)O)C(=O)N[C@H](C)[C@H]([C@H](C)C(=O)N[C@@H]([C@@H](C)O)C(=O)NCCC5=NC(=CS5)C6=NC(=CS6)C(=O)NCCC[S+](C)C)O [Bleomycin] + Nc1ncn([C@H]2C[C@H](O)[C@@H](CO)O2)c(=O)n1 [Decitabine] (partner 2 µM) (assay: relative viability (nuclei count vs DMSO), 5 days (fraction); higher = more cells survive). Details: first compound 0.01 µM; main component drawn.
Outline: (§1)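 Relative viability is defined as nuclei in treated wells over nuclei in vehicle wells. Duplicate plates were run and medians reported. Lung cancer cell lines in 1536-well plates were dosed by pin tool one day after seeding, with one drug or with a fixed anchor-drug dose plus five library-drug doses (not always all listed) in √10 steps, and nuclei were counted after 5 days.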
NCI-H23 gave a relative viability of 0.307. In the case of NCI-H1792, the relative viability is reported as 0.521. Work on NCI-H1355 yielded a relative viability of 0.319. Cell Line NCI-H322M has a relative viability of 0.809. Cell Line NCI-H1437 has a relative viability of 0.472. In the case of NCI-H1755, the relative viability is reported as 0.667. With NCI-H2023 the relative viability was 0.195. Cell Line HCC-15 has a relative viability of 0.591. Cell Line PC-3 [JPC-3] has a relative viability of 0.806. Work on EKVX yielded a relative viability of 0.311. LC-2-ad showed a relative viability of 0.72. For NCI-H1975, the relative viability was 0.327. SK-LU-1 showed a relative viability of 0.598. For NCI-H661, the relative viability was 0.552. With RERF-LC-KJ the relative viability was 0.418.

Same assay, conditions: first compound 0.03162 µM; main component drawn
Cell Line NCI-H23 has a relative viability of 0.265. Cell Line NCI-H1792 has a relative viability of 0.649. For NCI-H1355, the relative viability was 0.341. For NCI-H322M, the relative viability was 0.612. Work on NCI-H1437 yielded a relative viability of 0.527. In the case of NCI-H1755, the relative viability is reported as 0.706. For NCI-H2023, the relative viability was 0.195. In the case of HCC-15, the relative viability is reported as 0.639. PC-3 [JPC-3] gave a relative viability of 0.69. EKVX showed a relative viability of 0.323. LC-2-ad gave a relative viability of 0.737. In the case of NCI-H1975, the relative viability is reported as 0.437. SK-LU-1 gave a relative viability of 0.631. In the case of NCI-H661, the relative viability is reported as 0.572. Cell Line RERF-LC-KJ has a relative viability of 0.478.

Same assay, conditions: first compound 0.1 µM; main component drawn
Work on NCI-H23 yielded a relative viability of 0.235. Cell Line NCI-H1792 has a relative viability of 0.558. In the case of NCI-H1355, the relative viability is reported as 0.371. NCI-H322M was tested, and the relative viability was 0.635. With NCI-H1437 the relative viability was 0.518. In the case of NCI-H1755, the relative viability is reported as 0.651. With NCI-H2023 the relative viability was 0.152. HCC-15 showed a relative viability of 0.543. With PC-3 [JPC-3] the relative viability was 0.704. Work on EKVX yielded a relative viability of 0.279. LC-2-ad gave a relative viability of 0.541. NCI-H1975 showed a relative viability of 0.291. SK-LU-1 was tested, and the relative viability was 0.655. For NCI-H661, the relative viability was 0.434. Cell Line RERF-LC-KJ has a relative viability of 0.336.

Same assay, conditions: first compound 0.3162 µM; main component drawn
Work on NCI-H23 yielded a relative viability of 0.184. With NCI-H1792 the relative viability was 0.3. Work on NCI-H1355 yielded a relative viability of 0.314. NCI-H322M was tested, and the relative viability was 0.659. Cell Line NCI-H1437 has a relative viability of 0.428. In the case of NCI-H1755, the relative viability is reported as 0.561. Work on NCI-H2023 yielded a relative viability of 0.113. Work on HCC-15 yielded a relative viability of 0.336. Cell Line PC-3 [JPC-3] has a relative viability of 0.621. For EKVX, the relative viability was 0.215. With LC-2-ad the relative viability was 0.309. Work on NCI-H1975 yielded a relative viability of 0.209. Work on SK-LU-1 yielded a relative viability of 0.554. With NCI-H661 the relative viability was 0.37. RERF-LC-KJ gave a relative viability of 0.213.

Same assay, conditions: first compound 1 µM; main component drawn
With NCI-H23 the relative viability was 0.177. Work on NCI-H1792 yielded a relative viability of 0.252. NCI-H1355 showed a relative viability of 0.2. NCI-H322M was tested, and the relative viability was 0.48. For NCI-H1437, the relative viability was 0.377. NCI-H1755 gave a relative viability of 0.506. Cell Line NCI-H2023 has a relative viability of 0.0909. HCC-15 showed a relative viability of 0.276. PC-3 [JPC-3] was tested, and the relative viability was 0.547. Work on EKVX yielded a relative viability of 0.215. LC-2-ad showed a relative viability of 0.292. Work on NCI-H1975 yielded a relative viability of 0.177. SK-LU-1 showed a relative viability of 0.492. In the case of NCI-H661, the relative viability is reported as 0.315. RERF-LC-KJ gave a relative viability of 0.145.

Each cell line was assayed with CC1=C(N=C(N=C1N)[C@H](CC(=O)N)NC[C@@H](C(=O)N)N)C(=O)N[C@@H]([C@H](C2=CN=CN2)OC3C(C(C(C(O3)CO)O)O)OC4C(C(C(C(O4)CO)O)OC(=O)N)O)C(=O)N[C@H](C)[C@H]([C@H](C)C(=O)N[C@@H]([C@@H](C)O)C(=O)NCCC5=NC(=CS5)C6=NC(=CS6)C(=O)NCCC[S+](C)C)O [Bleomycin] + CC(C)C[C@H](NC(=O)[C@H](Cc1ccccc1)NC(=O)c1cnccn1)B(O)O [Bortezomib] (partner 0.002 µM) in the same assay as above. Details: first compound 0.01 µM; main component drawn.
Outline: as §1
With NCI-H23 the relative viability was 0.424. With NCI-H1792 the relative viability was 0.871. NCI-H1355 gave a relative viability of 1.13. NCI-H322M showed a relative viability of 1.07. NCI-H1437 gave a relative viability of 0.519. Work on NCI-H1755 yielded a relative viability of 0.854. In the case of NCI-H2023, the relative viability is reported as 0.61. In the case of HCC-15, the relative viability is reported as 0.914. PC-3 [JPC-3] was tested, and the relative viability was 0.748. EKVX gave a relative viability of 0.859. Cell Line LC-2-ad has a relative viability of 0.943. NCI-H1975 showed a relative viability of 0.27. Cell Line SK-LU-1 has a relative viability of 0.939. Work on NCI-H661 yielded a relative viability of 0.838. RERF-LC-KJ was tested, and the relative viability was 0.887.

Same assay, conditions: first compound 0.03162 µM; main component drawn
Cell Line NCI-H23 has a relative viability of 0.374. For NCI-H1792, the relative viability was 0.958. NCI-H1355 was tested, and the relative viability was 1.24. NCI-H322M gave a relative viability of 1.13. For NCI-H1437, the relative viability was 0.44. In the case of NCI-H1755, the relative viability is reported as 0.957. NCI-H2023 was tested, and the relative viability was 0.772. Work on HCC-15 yielded a relative viability of 1.01. PC-3 [JPC-3] was tested, and the relative viability was 0.926. Cell Line EKVX has a relative viability of 1.04. With LC-2-ad the relative viability was 0.624. In the case of NCI-H1975, the relative viability is reported as 0.342. For SK-LU-1, the relative viability was 1.04. NCI-H661 gave a relative viability of 0.603. Work on RERF-LC-KJ yielded a relative viability of 0.727.

Same assay, conditions: first compound 0.1 µM; main component drawn
NCI-H23 was tested, and the relative viability was 0.276. NCI-H1792 was tested, and the relative viability was 0.663. Cell Line NCI-H1355 has a relative viability of 1.03. NCI-H322M showed a relative viability of 1.36. NCI-H1437 was tested, and the relative viability was 0.452. NCI-H1755 was tested, and the relative viability was 0.827. NCI-H2023 gave a relative viability of 0.548. Cell Line HCC-15 has a relative viability of 0.815. Cell Line PC-3 [JPC-3] has a relative viability of 0.791. Work on EKVX yielded a relative viability of 0.954. LC-2-ad showed a relative viability of 0.316. In the case of NCI-H1975, the relative viability is reported as 0.27. In the case of SK-LU-1, the relative viability is reported as 0.915. NCI-H661 showed a relative viability of 0.484. In the case of RERF-LC-KJ, the relative viability is reported as 0.625.

Same assay, conditions: first compound 0.3162 µM; main component drawn
NCI-H23 gave a relative viability of 0.165. Cell Line NCI-H1792 has a relative viability of 0.323. With NCI-H1355 the relative viability was 0.376. NCI-H322M gave a relative viability of 0.708. Cell Line NCI-H1437 has a relative viability of 0.121. NCI-H1755 gave a relative viability of 0.384. For NCI-H2023, the relative viability was 0.205. In the case of HCC-15, the relative viability is reported as 0.299. For PC-3 [JPC-3], the relative viability was 0.446. Work on EKVX yielded a relative viability of 0.511. With LC-2-ad the relative viability was 0.127. NCI-H1975 gave a relative viability of 0.16. In the case of SK-LU-1, the relative viability is reported as 0.293. With NCI-H661 the relative viability was 0.228. With RERF-LC-KJ the relative viability was 0.343.

Same assay, conditions: first compound 1 µM; main component drawn
Cell Line NCI-H23 has a relative viability of 0.2. NCI-H1792 gave a relative viability of 0.283. With NCI-H1355 the relative viability was 0.262. NCI-H322M was tested, and the relative viability was 0.592. Cell Line NCI-H1437 has a relative viability of 0.303. Cell Line NCI-H1755 has a relative viability of 0.659. Work on NCI-H2023 yielded a relative viability of 0.11. Work on HCC-15 yielded a relative viability of 0.318. In the case of PC-3 [JPC-3], the relative viability is reported as 0.448. With EKVX the relative viability was 0.318. Work on LC-2-ad yielded a relative viability of 0.0954. NCI-H1975 gave a relative viability of 0.142. SK-LU-1 gave a relative viability of 0.274. Work on NCI-H661 yielded a relative viability of 0.251. With RERF-LC-KJ the relative viability was 0.334.
